Laboratory results reported in patent publication EP1027880A2, “Use of quaternary ammonium compounds as antiperspirants” (Beiersdorf Aktiengesellschaft, priority 1999, dated 2000).
Values joined by “and” are separate entries in the source; they are usually repeats but may differ in a detail not shown here. Identical values can stand only once.

Test system: Schweißsekretion
Assay: Imprint method: sweat reduction on the inner forearm after topical application for several days, sauna sweating, silicone imprint with image analysis
Assay type: in vivo, menschlichen Probanden
Excerpt: Der Nachweis der Wirksamkeit wurde an menschlichen Probanden mit Hilfe der sogenannten "Imprintmethode" geführt. Bei dieser Methode wird das zu untersuchende Material am Unterarm innen mehrere Tage hintereinander (topisch) angewendet, sodann begeben sich die Probanden in die Sauna zum Schwitzen. An der Untersuchungsstelle wird eine Silikonmasse aufgetragen, die während der Schwitzphase aushärtet. An den Stellen, an denen Schweisströpfchen austreten, bilden sich Abdrücke in der Silikonmasse, welche bildanalytisch ausgewertet werden können. Nach diesem Verfahren wurden zunächst die Wirkstoffe in wäßriger Lösung untersucht und sodann entsprechende kosmetische Zubereitungen.
Es wurden wässrige Lösungen aus Mecetroniumethylsulfat (MES) hergestellt und an 15 Probanden die Schweissreduktion mit Hilfe der Imprint-Methode am inneren Unterarm geprüft. Zum Vergleich wurde eine 10 %ige Aluminiumchlorhydrat-Lösung verwendet

With `CCCCCCCCCCCCCCCC[N+](C)(C)CC` [MES, N-Hexadecyl-N-ethyl-N,N-dimethylammoniumethylsulfat] the “Reduktion der Schweißsekretion” value (in vivo) was 93% and 95%.

For Aluminiumchlorhydrat, the “Reduktion der Schweißsekretion” value (10 %ige comparison solution, 15 Probanden, inner forearm) was 93%.
